Measured values: PubChem BioAssay (NCI)
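How tested: cells in 96-well plates exposed to compound for 48 hours at five concentrations. TGI: concentration producing complete growth inhibition.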

How the values were obtained:
Experiment in all cases: NCI tumour cell line growth inhibition, 48 h
[1] = test system: 786-0 renal
[2] = test system: A549 NSCLC
[3] = test system: ACHN renal
[4] = test system: CAKI-1 renal
[5] = test system: COLO 205 colon
[6] = test system: DLD-1 colon
[7] = test system: DMS 273 small cell lung
[8] = test system: EKVX NSCLC
[9] = test system: HCC-2998 colon
[10] = test system: HCT-116 colon
[11] = test system: HCT-15 colon
[12] = test system: HOP-62 NSCLC
[13] = test system: HOP-92 NSCLC
[14] = test system: HT29 colon
[15] = test system: IGROV1 ovarian
[16] = test system: KM12 colon
[17] = test system: KM20L2 colon
[18] = test system: LOX IMVI melanoma
[19] = test system: LXFL 529 NSCLC
[20] = test system: M14 melanoma
[21] = test system: NCI-H23 lung
[22] = test system: NCI-H460 lung
[23] = test system: NCI-H522 lung
[24] = test system: OVCAR-3 ovarian
[25] = test system: OVCAR-4 ovarian
[26] = test system: OVCAR-8 ovarian
[27] = test system: SF-268 CNS
[28] = test system: SF-295 CNS
[29] = test system: SF-539 CNS
[30] = test system: SK-MEL-2 melanoma
[31] = test system: SK-MEL-28 melanoma
[32] = test system: SK-MEL-5 melanoma
[33] = test system: SK-OV-3 ovarian
[34] = test system: SN12C renal
[35] = test system: SNB-19 CNS
[36] = test system: SNB-78 CNS
[37] = test system: SW-620 colon
[38] = test system: TK-10 renal
[39] = test system: U251 CNS
[40] = test system: UACC-257 melanoma
[41] = test system: UACC-62 melanoma
[42] = test system: UO-31 renal
[43] = test system: A498 renal
[44] = test system: DMS 114 small cell lung
[45] = test system: NCI-H226 lung
[46] = test system: OVCAR-5 ovarian
[47] = test system: RXF 393 renal
[48] = test system: SNB-75 CNS
[49] = test system: BT-549 breast
[50] = test system: CCRF-CEM leukemia
[51] = test system: DU-145 prostate
[52] = test system: HL-60(TB) leukemia
[53] = test system: HS 578T breast
[54] = test system: K-562 leukemia
[55] = test system: MALME-3M melanoma
[56] = test system: MCF7 breast
[57] = test system: MDA-MB-231 breast
[58] = test system: MDA-MB-435
[59] = test system: MDA-N
[60] = test system: MOLT-4 leukemia
[61] = test system: NCI/ADR-RES ovarian
[62] = test system: PC-3 prostate
[63] = test system: RPMI-8226 leukemia
[64] = test system: SR leukemia
[65] = test system: T-47D breast

Structure (SMILES): NC(=O)NC(=NCc1ccccc1)NCc1ccccc1
- TGI [1]: > 100 µM
- TGI [2]: > 100 µM
- TGI [3]: > 100 µM
- TGI [4]: > 100 µM
- TGI [5]: > 100 µM
- TGI [6]: > 100 µM
- TGI [7]: > 100 µM
- TGI [8]: > 100 µM
- TGI [9]: > 100 µM
- TGI [10]: > 100 µM
- TGI [11]: > 100 µM
- TGI [12]: > 100 µM
- TGI [13]: > 100 µM
- TGI [14]: > 100 µM
- TGI [15]: > 100 µM
- TGI [16]: > 100 µM
- TGI [17]: > 100 µM
- TGI [18]: > 100 µM
- TGI [19]: > 100 µM
- TGI [20]: > 100 µM
- TGI [21]: > 100 µM
- TGI [22]: > 100 µM
- TGI [23]: > 100 µM
- TGI [24]: > 100 µM
- TGI [25]: > 100 µM
- TGI [26]: > 100 µM
- TGI [27]: > 100 µM
- TGI [28]: > 100 µM
- TGI [29]: > 100 µM
- TGI [30]: > 100 µM
- TGI [31]: > 100 µM
- TGI [32]: > 100 µM
- TGI [33]: > 100 µM
- TGI [34]: > 100 µM
- TGI [35]: > 100 µM
- TGI [36]: > 100 µM
- TGI [37]: > 100 µM
- TGI [38]: > 100 µM
- TGI [39]: > 100 µM
- TGI [40]: > 100 µM
- TGI [41]: > 100 µM
- TGI [42]: > 100 µM

Structure (SMILES): O=C1NC(=S)S/C1=C/c1ccco1
- TGI [43]: 64.3 µM
- TGI [2]: > 100 µM
- TGI [3]: > 100 µM
- TGI [4]: > 100 µM
- TGI [5]: > 100 µM
- TGI [6]: > 100 µM
- TGI [44]: > 100 µM
- TGI [7]: > 100 µM
- TGI [8]: > 100 µM
- TGI [9]: > 100 µM
- TGI [10]: > 100 µM
- TGI [11]: > 100 µM
- TGI [13]: > 100 µM
- TGI [14]: > 100 µM
- TGI [15]: > 100 µM
- TGI [18]: > 100 µM
- TGI [19]: > 100 µM
- TGI [20]: > 100 µM
- TGI [45]: > 100 µM
- TGI [21]: > 100 µM
- TGI [22]: > 100 µM
- TGI [24]: > 100 µM
- TGI [25]: > 100 µM
- TGI [46]: > 100 µM
- TGI [26]: > 100 µM
- TGI [47]: > 100 µM
- TGI [27]: > 100 µM
- TGI [28]: > 100 µM
- TGI [29]: > 100 µM
- TGI [31]: > 100 µM
- TGI [32]: > 100 µM
- TGI [33]: > 100 µM
- TGI [34]: > 100 µM
- TGI [35]: > 100 µM
- TGI [48]: > 100 µM
- TGI [37]: > 100 µM
- TGI [38]: > 100 µM
- TGI [40]: > 100 µM
- TGI [41]: > 100 µM
- TGI [42]: > 100 µM

Structure (SMILES): COc1cc(/C=C/C(=O)O)ccc1OS(=O)(=O)O
- TGI [1]: > 100 µM
- TGI [43]: > 100 µM
- TGI [2]: > 100 µM
- TGI [3]: > 100 µM
- TGI [49]: > 100 µM
- TGI [4]: > 100 µM
- TGI [50]: > 100 µM
- TGI [5]: > 100 µM
- TGI [51]: > 100 µM
- TGI [8]: > 100 µM
- TGI [9]: > 100 µM
- TGI [10]: > 100 µM
- TGI [11]: > 100 µM
- TGI [52]: > 100 µM
- TGI [12]: > 100 µM
- TGI [13]: > 100 µM
- TGI [53]: > 100 µM
- TGI [14]: > 100 µM
- TGI [15]: > 100 µM
- TGI [54]: > 100 µM
- TGI [16]: > 100 µM
- TGI [18]: > 100 µM
- TGI [20]: > 100 µM
- TGI [55]: > 100 µM
- TGI [56]: > 100 µM
- TGI [57]: > 100 µM
- TGI [58]: > 100 µM
- TGI [59]: > 100 µM
- TGI [60]: > 100 µM
- TGI [45]: > 100 µM
- TGI [21]: > 100 µM
- TGI [22]: > 100 µM
- TGI [23]: > 100 µM
- TGI [61]: > 100 µM
- TGI [24]: > 100 µM
- TGI [25]: > 100 µM
- TGI [46]: > 100 µM
- TGI [26]: > 100 µM
- TGI [62]: > 100 µM
- TGI [63]: > 100 µM
- TGI [47]: > 100 µM
- TGI [27]: > 100 µM
- TGI [28]: > 100 µM
- TGI [29]: > 100 µM
- TGI [30]: > 100 µM
- TGI [31]: > 100 µM
- TGI [32]: > 100 µM
- TGI [33]: > 100 µM
- TGI [34]: > 100 µM
- TGI [35]: > 100 µM
- TGI [48]: > 100 µM
- TGI [64]: > 100 µM
- TGI [37]: > 100 µM
- TGI [65]: > 100 µM
- TGI [38]: > 100 µM
- TGI [39]: > 100 µM
- TGI [40]: > 100 µM
- TGI [41]: > 100 µM
- TGI [42]: > 100 µM

Structure (SMILES): CCOC(=O)C(NC(=O)c1ccc(N=NN(C)C)cc1)C(C)C (configuration not stated)
- TGI [1]: > 100 µM
- TGI [43]: > 100 µM
- TGI [2]: > 100 µM
- TGI [3]: > 100 µM
- TGI [4]: > 100 µM
- TGI [50]: > 100 µM
- TGI [5]: > 100 µM
- TGI [6]: > 100 µM
- TGI [44]: > 100 µM
- TGI [7]: > 100 µM
- TGI [8]: > 100 µM
- TGI [9]: > 100 µM
- TGI [10]: > 100 µM
- TGI [11]: > 100 µM
- TGI [52]: > 100 µM
- TGI [12]: > 100 µM
- TGI [14]: > 100 µM
- TGI [15]: > 100 µM
- TGI [54]: > 100 µM
- TGI [16]: > 100 µM
- TGI [18]: > 100 µM
- TGI [19]: > 100 µM
- TGI [20]: > 100 µM
- TGI [55]: > 100 µM
- TGI [60]: > 100 µM
- TGI [45]: > 100 µM
- TGI [21]: > 100 µM
- TGI [22]: > 100 µM
- TGI [23]: > 100 µM
- TGI [24]: > 100 µM
- TGI [25]: > 100 µM
- TGI [46]: > 100 µM
- TGI [26]: > 100 µM
- TGI [63]: > 100 µM
- TGI [27]: > 100 µM
- TGI [28]: > 100 µM
- TGI [29]: > 100 µM
- TGI [30]: > 100 µM
- TGI [31]: > 100 µM
- TGI [32]: > 100 µM
- TGI [33]: > 100 µM
- TGI [34]: > 100 µM
- TGI [35]: > 100 µM
- TGI [48]: > 100 µM
- TGI [64]: > 100 µM
- TGI [37]: > 100 µM
- TGI [38]: > 100 µM
- TGI [39]: > 100 µM
- TGI [40]: > 100 µM
- TGI [41]: > 100 µM
- TGI [42]: > 100 µM
